{"source": "patent US20100286145A1", "about": "“ISOPHTHALAMIDE DERIVATIVES INHIBITING BETA-SECRETASE ACTIVITY” (CoMentis, Inc., priority 2007, published 2010)", "key": {"memapsin 2": {"target": "memapsin 2 (Homo sapiens, UniProt P56817)", "sequence (P56817 46-501)": "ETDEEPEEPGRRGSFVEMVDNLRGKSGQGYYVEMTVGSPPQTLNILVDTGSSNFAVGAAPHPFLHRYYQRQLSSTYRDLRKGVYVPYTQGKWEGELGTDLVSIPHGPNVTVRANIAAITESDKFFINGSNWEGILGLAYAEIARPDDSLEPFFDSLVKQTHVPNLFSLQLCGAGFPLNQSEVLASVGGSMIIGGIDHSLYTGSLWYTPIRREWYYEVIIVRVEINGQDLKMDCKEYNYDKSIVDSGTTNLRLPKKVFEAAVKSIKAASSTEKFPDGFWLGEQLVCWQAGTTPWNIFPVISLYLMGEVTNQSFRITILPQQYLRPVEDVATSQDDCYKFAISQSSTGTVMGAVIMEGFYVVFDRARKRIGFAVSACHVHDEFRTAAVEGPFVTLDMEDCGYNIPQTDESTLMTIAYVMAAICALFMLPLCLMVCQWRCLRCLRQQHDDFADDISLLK", "assay": "Inhibition of memapsin 2 beta-secretase activity (fluorogenic substrate FS-2)", "assay_type": "biochemical", "conditions": "memapsin 2, pH 4, 37° C., 20 minutes pre-incubation; read-out: M2Ki", "method_in_brief": "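Kinetic fluorogenic assay: hydrolysis of the MCA/DNP-labelled APP Swedish-variant peptide FS-2 monitored as fluorescence rise at 37° C, pH 4, after 20 min enzyme–compound preincubation. Relative rates fitted with a tight-binding inhibitor model.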"}, "[1]": {"tested_on": "Aβ production in Chinese hamster ovary cells that over-express human APP695 with the London and Swedish mutations", "assay": "Cellular Aβ IC50 determination (Aβ40 sandwich ELISA)", "assay_type": "cell-based", "conditions": "Cricetulus griseus; cellular Aβ production; read-out: IC50", "experimental": "The potency of compounds against memapsin 2 activity was determined in a cellular assay of Aβ production. […] Chinese hamster ovary cells that over-express human APP695 with the London and Swedish mutations were seeded in multi-well plates at 10% confluency. Compounds are dissolved in DMSO to concentrations near 1 mM, and diluted into culture media to a final concentration near 4 μM (final 0.4% DMSO). […] Aliquots were removed and assayed for Aβ40 content using a sandwich ELISA (BioSource International). Amount of Aβ40 over the range of concentration of compounds, relative to control incubations, were fit to a 4-parameter IC50 model."}}, "data": [{"smiles": "Cc1csc(CN(C)C(=O)c2cccc(C(=O)N[C@@H](Cc3ccccc3)[C@H](O)CNCc3cncc(CCC(C)C)c3)c2)n1", "note": "[Compound 68, N1-((2S,3R)-3-hydroxy-4-((5-isopentylpyridin-3-yl)methylamino)-1-phenylbutan-2-yl)-N3-methyl-N3-((4-methylthiazol-2-yl)methyl)isophthalamide]", "values": [{"measurement": "Ki", "setting": "memapsin 2", "result": "< 300", "unit": "nM"}, {"measurement": "IC50", "setting": "[1]", "result": "< 1000", "unit": "nM"}]}, {"smiles": "COc1cccc(CNC[C@@H](O)[C@H](Cc2ccccc2)NC(=O)c2cc(OS(C)(=O)=O)cc(C(=O)N[C@H](C)c3ccccc3)c2)c1", "note": "[Compound 70, 3-((2S,3R)-3-hydroxy-4-(3-methoxybenzylamino)-1-phenylbutan-2-ylcarbamoyl)-5-((R)-1-phenylethylcarbamoyl)phenyl methanesulfonate]", "values": [{"measurement": "Ki", "setting": "memapsin 2", "result": "< 300", "unit": "nM"}, {"measurement": "IC50", "setting": "[1]", "result": "< 1000", "unit": "nM"}]}, {"smiles": "Cc1csc(CN(C)C(=O)c2cccc(C(=O)N[C@@H](Cc3ccccc3)[C@H](O)CNCc3cccc(O)c3)c2)n1", "note": "[Compound 73, N1-((2S,3R)-3-hydroxy-4-(3-hydroxybenzylamino)-1-phenylbutan-2-yl)-N3-methyl-N3-((4-methylthiazol-2-yl)methyl)isophthalamide]", "values": [{"measurement": "Ki", "setting": "memapsin 2", "result": "> 501", "unit": "nM"}, {"measurement": "IC50", "setting": "[1]", "result": "> 5000", "unit": "nM"}]}, {"smiles": "Cc1csc(CN(C)C(=O)c2cccc(C(=O)N[C@@H](Cc3ccccc3)[C@H](O)CNCc3cc(NC(=O)OCc4ccccc4)cc(C(C)C)c3)c2)n1", "note": "[Compound 74, benzyl 3-(((2R,3S)-2-hydroxy-3-(3-(methyl((4-methylthiazol-2-yl)methyl)carbamoyl)benzamido)-4-phenylbutylamino)methyl)-5-isopropylphenylcarbamate]", "values": [{"measurement": "Ki", "setting": "memapsin 2", "result": "< 300", "unit": "nM"}, {"measurement": "IC50", "setting": "[1]", "result": "< 1000", "unit": "nM"}]}, {"smiles": "Cc1csc(CN(C)C(=O)c2cccc(C(=O)N[C@@H](Cc3ccccc3)[C@H](O)CNCc3cc(N)cc(C(C)C)c3)c2)n1", "note": "[Compound 75, N1-((2S,3R)-4-(3-amino-5-isopropylbenzylamino)-3-hydroxy-1-phenylbutan-2-yl)-N3-methyl-N3-((4-methylthiazol-2-yl)methyl)isophthalamide]", "values": [{"measurement": "Ki", "setting": "memapsin 2", "result": "< 300", "unit": "nM"}, {"measurement": "IC50", "setting": "[1]", "result": "< 1000", "unit": "nM"}]}, {"smiles": "Cc1csc(CN(C)C(=O)c2cccc(C(=O)N[C@@H](Cc3ccccc3)[C@H](O)CNCc3cccc(C(C)(C)C)c3O)c2)n1", "note": "[Compound 77, N1-((2S,3R)-4-(3-tert-butyl-2-hydroxybenzylamino)-3-hydroxy-1-phenylbutan-2-yl)-N3-methyl-N3-((4-methylthiazol-2-yl)methyl)isophthalamide]", "values": [{"measurement": "Ki", "setting": "memapsin 2", "result": "< 300", "unit": "nM"}, {"measurement": "IC50", "setting": "[1]", "result": "< 1000", "unit": "nM"}]}, {"smiles": "COc1cccc(CNC[C@@H](O)[C@H](Cc2ccccc2)NC(=O)c2cc(C(=O)N(C)Cc3nc(C)cs3)cc(-c3ccccc3)c2)c1", "note": "[Compound 78, N3-((2S,3R)-3-hydroxy-4-(3-methoxybenzylamino)-1-phenylbutan-2-yl)-N5-methyl-N5-((4-methylthiazol-2-yl)methyl)biphenyl-3,5-dicarboxamide]", "values": [{"measurement": "Ki", "setting": "memapsin 2", "result": "< 300", "unit": "nM"}, {"measurement": "IC50", "setting": "[1]", "result": "< 1000", "unit": "nM"}]}, {"smiles": "C[C@@H](NC(=O)c1cc(C(=O)N[C@@H](Cc2ccccc2)[C@H](O)CNCc2cccc(C(C)(C)C)c2O)cc(N(C)S(C)(=O)=O)c1)c1ccccc1", "note": "[Compound 79, N1-((2S,3R)-4-(3-tert-butyl-2-hydroxybenzylamino)-3-hydroxy-1-phenylbutan-2-yl)-5-(N-methylmethylsulfonamido)-N3-((R)-1-phenylethyl)isophthalamide]", "values": [{"measurement": "Ki", "setting": "memapsin 2", "result": "< 300", "unit": "nM"}, {"measurement": "IC50", "setting": "[1]", "result": "< 1000", "unit": "nM"}]}, {"smiles": "COc1cc(C(=O)NCc2nc(C)cs2)cc(C(=O)N[C@@H](Cc2ccccc2)[C@H](O)CNCc2ccnc(C(C)C)c2)c1", "note": "[Compound 83, N1-((2S,3R)-3-hydroxy-4-((2-isopropylpyridin-4-yl)methylamino)-1-phenylbutan-2-yl)-5-methoxy-N3-((4-methylthiazol-2-yl)methyl)isophthalamide]", "values": [{"measurement": "Ki", "setting": "memapsin 2", "result": "< 300", "unit": "nM"}, {"measurement": "IC50", "setting": "[1]", "result": "< 1000", "unit": "nM"}]}, {"smiles": "COc1cccc(CNC[C@@H](O)[C@H](Cc2ccccc2)NC(=O)c2cc(C(=O)N(C)Cc3nc(C)cs3)cc(-c3ncco3)c2)c1", "note": "[Compound 85, N1-((2S,3R)-3-hydroxy-4-(3-methoxybenzylamino)-1-phenylbutan-2-yl)-N3-methyl-N3-((4-methylthiazol-2-yl)methyl)-5-(oxazol-2-yl)isophthalamide]", "values": [{"measurement": "Ki", "setting": "memapsin 2", "result": "< 300", "unit": "nM"}, {"measurement": "IC50", "setting": "[1]", "result": "< 1000", "unit": "nM"}]}, {"smiles": "Cc1csc(CN(C)C(=O)c2cccc(C(=O)N[C@@H](Cc3ccccc3)[C@H](O)CNCc3cncc(C(C)(C)F)c3)c2)n1", "note": "[Compound 92, N1-((2S,3R)-4-((5-(2-fluoropropan-2-yl)pyridin-3-yl)methylamino)-3-hydroxy-1-phenylbutan-2-yl)-N3-methyl-N3-((4-methylthiazol-2-yl)methyl)isophthalamide]", "values": [{"measurement": "Ki", "setting": "memapsin 2", "result": "< 300", "unit": "nM"}, {"measurement": "IC50", "setting": "[1]", "result": "< 1000", "unit": "nM"}]}, {"smiles": "Cc1csc(CNC(=O)c2cccc(C(=O)N[C@@H](Cc3ccccc3)[C@H](O)CNCc3cc(C(C)C)c(C)nc3C)c2)n1", "note": "[Compound 93, N1-((2S,3R)-3-hydroxy-4-((5-isopropyl-2,6-dimethylpyridin-3-yl)methylamino)-1-phenylbutan-2-yl)-N3-((4-methylthiazol-2-yl)methyl)isophthalamide]", "values": [{"measurement": "Ki", "setting": "memapsin 2", "result": "301 to 500", "unit": "nM"}, {"measurement": "IC50", "setting": "[1]", "result": "< 1000", "unit": "nM"}]}, {"smiles": "CNC(=O)c1cc(C(=O)N[C@@H](Cc2ccccc2)[C@H](O)CNCc2cccc(OC)c2)cc(C(=O)N[C@H](C)c2ccccc2)c1", "note": "[Compound 94, N1-((2S,3R)-3-hydroxy-4-(3-methoxybenzylamino)-1-phenylbutan-2-yl)-N3-methyl-N5-((R)-1-phenylethyl)benzene-1,3,5-tricarboxamide]", "values": [{"measurement": "Ki", "setting": "memapsin 2", "result": "> 501", "unit": "nM"}, {"measurement": "IC50", "setting": "[1]", "result": "1000 to 5000", "unit": "nM"}]}, {"smiles": "Cc1coc(CN(C)C(=O)c2cccc(C(=O)N[C@@H](Cc3ccccc3)[C@H](O)CNCc3cncc(C(C)C)c3)c2)n1", "note": "[Compound 95, N1-((2S,3R)-3-hydroxy-4-((5-isopropylpyridin-3-yl)methylamino)-1-phenylbutan-2-yl)-N3-methyl-N3-((4-methyloxazol-2-yl)methyl)isophthalamide]", "values": [{"measurement": "Ki", "setting": "memapsin 2", "result": "< 300", "unit": "nM"}, {"measurement": "IC50", "setting": "[1]", "result": "< 1000", "unit": "nM"}]}, {"smiles": "COC(=O)c1cccc(CNC[C@@H](O)[C@H](Cc2ccccc2)NC(=O)c2cc(C(=O)N[C@H](C)c3ccccc3)cc(N(C)S(C)(=O)=O)c2)c1", "note": "[Compound 96, methyl 3-(((2R,3S)-2-hydroxy-3-(3-(N-methylmethylsulfonamido)-5-((R)-1-phenylethylcarbamoyl)benzamido)-4-phenylbutylamino)methyl)benzoate]", "values": [{"measurement": "Ki", "setting": "memapsin 2", "result": "< 300", "unit": "nM"}, {"measurement": "IC50", "setting": "[1]", "result": "< 1000", "unit": "nM"}]}, {"smiles": "Cc1csc(CN(C)C(=O)c2cccc(C(=O)N[C@@H](Cc3ccccc3)[C@H](O)CNCc3cccc(I)c3)c2)n1", "note": "[Compound 97, N1-((2S,3R)-3-hydroxy-4-(3-iodobenzylamino)-1-phenylbutan-2-yl)-N3-methyl-N3-((4-methylthiazol-2-yl)methyl)isophthalamide]", "values": [{"measurement": "Ki", "setting": "memapsin 2", "result": "< 300", "unit": "nM"}, {"measurement": "IC50", "setting": "[1]", "result": "< 1000", "unit": "nM"}]}, {"smiles": "CNC(=O)c1cc(C(=O)N[C@@H](Cc2ccccc2)[C@H](O)CNCc2cccc(OC)c2)cc(C(=O)N(C)Cc2nc(C)cs2)c1", "note": "[Compound 98, N1-((2S,3R)-3-hydroxy-4-(3-methoxybenzylamino)-1-phenylbutan-2-yl)-N3,N5-dimethyl-N3-((4-methylthiazol-2-yl)methyl)benzene-1,3,5-tricarboxamide]", "values": [{"measurement": "Ki", "setting": "memapsin 2", "result": "< 300", "unit": "nM"}, {"measurement": "IC50", "setting": "[1]", "result": "1000 to 5000", "unit": "nM"}]}, {"smiles": "Cc1csc(CN(C)C(=O)c2cc(OS(C)(=O)=O)cc(C(=O)N[C@@H](Cc3ccccc3)[C@H](O)CNCc3cncc(C(C)C)c3)c2)n1", "note": "[Compound 100, 3-((2S,3R)-3-hydroxy-4-((5-isopropylpyridin-3-yl)methylamino)-1-phenylbutan-2-ylcarbamoyl)-5-(methyl((4-methylthiazol-2-yl)methyl)carbamoyl)phenyl methanesulfonate]", "values": [{"measurement": "Ki", "setting": "memapsin 2", "result": "< 300", "unit": "nM"}, {"measurement": "IC50", "setting": "[1]", "result": "< 1000", "unit": "nM"}]}, {"smiles": "COc1cccc(CNC[C@@H](O)[C@H](Cc2ccccc2)NC(=O)c2cccc(C(=O)NCc3nccc(C)n3)c2)c1", "note": "[Compound 102, N1-((2S,3R)-3-hydroxy-4-(3-methoxybenzylamino)-1-phenylbutan-2-yl)-N3-((4-methylpyrimidin-2-yl)methyl)isophthalamide]", "values": [{"measurement": "Ki", "setting": "memapsin 2", "result": "> 501", "unit": "nM"}, {"measurement": "IC50", "setting": "[1]", "result": "> 5000", "unit": "nM"}]}, {"smiles": "COc1cccc(CNC[C@@H](O)[C@H](Cc2ccccc2)NC(=O)c2cc(C(N)=O)cc(C(=O)N(C)Cc3nc(C)cs3)c2)c1", "note": "[Compound 103, N1-((2S,3R)-3-hydroxy-4-(3-methoxybenzylamino)-1-phenylbutan-2-yl)-N3-methyl-N3-((4-methylthiazol-2-yl)methyl)benzene-1,3,5-tricarboxamide]", "values": [{"measurement": "Ki", "setting": "memapsin 2", "result": "< 300", "unit": "nM"}, {"measurement": "IC50", "setting": "[1]", "result": "< 1000", "unit": "nM"}]}, {"smiles": "Cc1csc(CN(C)C(=O)c2cccc(C(=O)N[C@@H](Cc3ccccc3)[C@H](O)CNCc3cccc(Cl)c3)c2)n1", "note": "[Compound 104, N1-((2S,3R)-4-(3-chlorobenzylamino)-3-hydroxy-1-phenylbutan-2-yl)-N3-methyl-N3-((4-methylthiazol-2-yl)methyl)isophthalamide]", "values": [{"measurement": "Ki", "setting": "memapsin 2", "result": "< 300", "unit": "nM"}, {"measurement": "IC50", "setting": "[1]", "result": "< 1000", "unit": "nM"}]}, {"smiles": "Cc1csc(CN(C)C(=O)c2cccc(C(=O)N[C@@H](Cc3ccccc3)[C@H](O)CNCc3cc(C(C)C)nc(C(C)C)c3)c2)n1", "note": "[Compound 106, N1-((2S,3R)-4-((2,6-diisopropylpyridin-4-yl)methylamino)-3-hydroxy-1-phenylbutan-2-yl)-N3-methyl-N3-((4-methylthiazol-2-yl)methyl)isophthalamide]", "values": [{"measurement": "Ki", "setting": "memapsin 2", "result": "< 300", "unit": "nM"}, {"measurement": "IC50", "setting": "[1]", "result": "< 1000", "unit": "nM"}]}, {"smiles": "C[C@@H](NC(=O)c1cc(C(=O)N[C@@H](Cc2ccccc2)[C@H](O)CNCc2cccc(CO)c2)cc(N(C)S(C)(=O)=O)c1)c1ccccc1", "note": "[Compound 107, N1-((2S,3R)-3-hydroxy-4-(3-(hydroxymethyl)benzylamino)-1-phenylbutan-2-yl)-5-(N-methylmethylsulfonamido)-N3-((R)-1-phenylethyl)isophthalamide]", "values": [{"measurement": "Ki", "setting": "memapsin 2", "result": "< 300", "unit": "nM"}, {"measurement": "IC50", "setting": "[1]", "result": "< 1000", "unit": "nM"}]}]}
